The target of one data set is T1, BCL-XL (Homo sapiens, UniProt Q07817).
T1 construct: BCL-XL (amino acids 1-212, C-terminal fused to a hexahistidine (6×His) tag); purchased BPS Bioscience (San Diego, Calif., USA); host or cells: E. coli
The data set is described as follows: Protein-protein interaction assay BCL-XL/Bad BH3 peptide (BCL-XL assay), TR-FRET. It is filed as binding. To be noted: His-BCL-XL / Bad BH3-derived peptide. Here is the method:
Protein-Protein Interaction Assay: BCL-XL/Bad BH3 Peptide (BCL-XL Assay)
The dose-dependent inhibition by the compounds described in this invention of the interaction between […] and the BH3 domain of Bad (both human) was determined using a steady state binding competition assay with time-resolved fluorescence energy transfer (TR-FRET) readout. For that purpose BCL-2 (amino acids 1-211, C-terminal fused to a hexahistidine (6×His) tag (SEQ ID NO: 3) and a synthetic Bad BH3-derived peptide of sequence Biotin-PEG2-PEG2-NLWAAQRYGRELRR-NIe-SDEFVDSFKK-amide (SEQ ID NO: 2) served as protein receptor and tracer ligand respectively. The recombinant BCL-2 protein (expressed in E. coli) was purchased from BPS Bioscience (San Diego, Calif., USA). The Bad BH3-derived peptide can be obtained from e.g. Biosyntan (Berlin, Germany).
In the assay 11 different concentrations of each compound (0.1 nM, 0.33 nM, 1.1 nM, 3.8 nM, 13 nM, 44 nM, 0.15 μM, 0.51 μM, 1.7 μM, 5.9 μM and 20 μM) were typically measured as duplicates in the same microtiter plate. For that, 100-fold concentrated DMSO solutions were prepared by serial dilutions (1:3.4) of a 2 mM stock solution in a clear, 384-well microtiter plate (Greiner Bio-One, Frickenhausen, Germany). From there, 50 nl were transferred in a dark test plate (Greiner Bio-One. Frickenhausen, Germany). The assay was initiated by addition of 2 μl of a 2,5-fold concentrated Hs-BCL-XL solution (usually for a 1 nM end concentration in 5 μl reaction volume) in aqueous assay buffer [50 mM Tris/HCl pH 7, 100 mM sodium chloride (NaCl), 50 mM potassium fluoride (KF), 0.005% Tween-20, 2 mM DTT, 0.1% bovine gamma globulin (BGG)] to the compounds in the assay plate. This was followed by a 10-minute incubation step at 22° C. for pre-equilibration of the putative complex between His-BCL-XL and the compounds.
The mixture was incubated in the dark for one hour at 22° C. and then overnight at 4° C. The formation of BCL-XL/Bad complexes was determined by measuring the resonance energy transfer of the anti-His- Eu-cryptate antibody to the streptavidin-XL665 present in the reaction. For that purpose, the fluorescence emission at 620 nm and 665 nm after excitation at 330-350 nm was measured in a TR-FRET measuring instrument, for instance a Rubystar or a Pherastar (both from BMG Lab Technologies, Offenburg, Germany) or a Viewlux (Perkin-Elmer). The ratio of the emission at 665 nm and at 622 nm was used as indicator of the amount of BCL-XL/Bad complexes present.
The resulting data (ratio) were normalized, taking 0% inhibition as the mean value of control measurements (usually 32 data points) where all reagents were included. In this case 50 nl DMSO were used instead of compounds. A 100% inhibition corresponded to the mean value of control measurements (usually 32 data points) where all reagents except BCL-XL were included. IC50 values were determined by regression analysis based on a 4 parameter equation (minimum, maximum, IC50, Hill; Y=Max+(Min−Max)/(1+(X/IC50)^Hill) using the Screener Software (Genedata).
(In general: Time-resolved FRET reads energy transfer from a long-lived donor to a nearby acceptor.)

Data set [1] relates to SUDHL10. The data set is described as follows: Induction of caspase-3/7 activity (Caspase-Glo 3/7), SUDHL10. To be noted: caspase-3/7 induction, SUDHL10 cells, 3 h treatment, median. It is filed as cell-based. An outline of the steps:
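DLBCL cells treated with compounds for 3 h at 37 °C, then caspase-3/7 activity read by Caspase-Glo 3/7 luminescence. Medium-only background subtracted; EC50 fitted with C0 fixed at 1 and top set to the reference compound's maximal induction.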

Data set [2] has as its system SUDHL5. The data set is described as follows: Anti-proliferative effect (CellTiter-Glo, 72 h), SUDHL5. It is filed as cell-based. To be noted: SUDHL5 cells, antiproliferation, 72 h incubation, median, read-out: Antiproli SUDHL5 [M] (median). The method, boiled down: (§1)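 Cells were treated with compounds for 72 h at 37 °C in a humidified incubator, and viability was measured by CellTiter-Glo luminescence. A parallel day 0 plate, read the same way, gave the time zero baseline.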
On the technique in general: In ATP-based viability assays light output follows the ATP content of the culture.

The subject of data set [3] is SUDHL10. The data set is described as follows: Anti-proliferative effect (CellTiter-Glo, 72 h), SUDHL10. To be noted: Homo sapiens, SU-DHL10, 72 h, SUDHL10 cells, antiproliferation, 72 h incubation, median, read-out: Antiproli SUDHL10 [M] (median). It is filed as cell-based. The method, boiled down: as §1
The test system of another data set is A2780. Put plainly: Anti-proliferative effect (CellTiter-Glo, 72 h), A2780. It is filed as cell-based. To be noted: Homo sapiens, A2780, 72 h, A2780 cells, median, read-out: IC50 antiproliferation assay A2780 [M] (median). The method, boiled down:
as §1

Data set [4] concerns SUDHL5. The data set is described as follows: Induction of cytotoxicity (CellTiter-Glo, 5 h), SUDHL5.
In data set [5] the test system is SUDHL10. Put plainly: Induction of cytotoxicity (CellTiter-Glo, 5 h), SUDHL10.
The mark [6] stands for this setting: Homo sapiens, SU-DHL-5, 5 h, read-out: Cytotox SUDHL5 [M] (median), SUDHL5 cells, cytotoxicity induction, CellTiter-Glo, 5 h incubation, median.
The mark [7] stands for this setting: Homo sapiens, SU-DHL10, 5 h, read-out: Cytotox SUDHL10 [M] (median), SUDHL10 cells, cytotoxicity induction, CellTiter-Glo, 5 h incubation, median.
[8] abbreviates: read-out: Cytotox SUDHL5 [M] (median), SUDHL5 cells, cytotoxicity induction, CellTiter-Glo, 5 h incubation, median.
[9] abbreviates: read-out: Cytotox SUDHL10 [M] (median), SUDHL10 cells, cytotoxicity induction, CellTiter-Glo, 5 h incubation, median.

Counter-ions that a name gives are not always drawn.

In general, EC50 refers to the concentration that produces a half-maximal response. Read a low EC50 as higher potency in that assay.

T1 sequence (Q07817 1-212): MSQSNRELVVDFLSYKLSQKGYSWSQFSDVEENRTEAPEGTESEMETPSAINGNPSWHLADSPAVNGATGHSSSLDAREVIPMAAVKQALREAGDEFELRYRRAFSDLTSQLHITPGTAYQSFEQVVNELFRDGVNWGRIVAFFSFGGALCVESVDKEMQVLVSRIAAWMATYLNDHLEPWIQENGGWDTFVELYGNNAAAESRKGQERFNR

For `Cc1c2c(nn1C)COCCCCn1c(C(=O)O)c(CCCOc3cccc4ccccc34)c3cccc-2c31` (racemic) [Example 1-36, (rac)-2,3-dimethyl-7-[3-(naphthalen-1-yloxy)propyl]-2,10,11,12,13,15-hexahydropyrazolo[4′,3′:9,10][1,6]oxazacycloundecino[8,7,6-hi]indole-8-carboxylic Acid], the IC50 on BCL-XL was over 20 µM; in the data set with SUDHL5 [2] (Homo sapiens, SU-DHL-5, 72 h) it was 2.63e-06 M; in the data set with SUDHL10 [3], 6.09e-06 M; in the data set on A2780, over 3.3e-05 M; in the data set with SUDHL5 [4] (setting [6]), 3.69e-06 M; with SUDHL10 [5] (setting [7]), 1.4e-05 M. In the data set with SUDHL10 [1] (Homo sapiens, SU-DHL10, 3 h), this molecule yielded an EC50 of 7.51 µM.

With `Cc1nn(C)c2c1-c1cccc3c(CCCOc4cccc5ccccc45)c(C(=O)O)n(c13)CCCCOCC2` (racemic) [Example 017, (rac)-1,3-dimethyl-7-[3-(1-naphthyloxy)propyl]-10,11,12,13,15,16-hexahydro-1H-pyrazolo[4′,3′:9,10][1,6]oxazacyclododecino[8,7,6-hi]indole-8-carboxylic Acid], the IC50 at BCL-XL was over 20 µM; in the data set on SUDHL5 [2] (Homo sapiens, SU-DHL-5, 72 h), 6.09e-06 M; in the data set with SUDHL10 [3] it was 2.17e-05 M; with A2780, over 3.3e-05 M; with SUDHL5 [4] (setting [6]), 1.36e-05 M; in the data set on SUDHL10 [5] (setting [7]) it was over 3.3e-05 M. Further, the EC50 with SUDHL10 [1] (Homo sapiens, SU-DHL10, 3 h) is over 33 µM; in the data set on SUDHL10 [1], 31.9 µM.

`Cc1ccc2c(CCCOc3cccc4c3CCCC4)c(C(=O)O)n3c2c1-c1c(C)nn(C)c1COCCCC3` (racemic) [Example 039, (rac)-1,3,4-trimethyl-7-[3-(5,6,7,8-tetrahydronaphthalen-1-yloxy)propyl]-110,11,12,13,15-hexahydropyrazolo[4′3′:9,10][1,6]oxazacycloundecino[8,7,6-hi]indole-8-carboxylic Acid]: the IC50 is over 20 µM against BCL-XL; 1.11e-05 M with SUDHL5 [2] (Homo sapiens, SU-DHL-5, 72 h); 1.3e-05 M in the data set on SUDHL10 [3]; 2.14e-05 M in the data set with A2780; 8.59e-06 M with SUDHL5 [4] (setting [6]); 2.97e-05 M in the data set with SUDHL10 [5] (setting [7]). In the data set with SUDHL10 [1] (Homo sapiens, SU-DHL10, 3 h), this molecule yielded an EC50 of 24.8 µM.

On to `CC(C)c1c2c(nn1C)CN(C)CCCn1c(C(=O)O)c(CCCOc3cccc4ccccc34)c3cccc-2c31` (racemic) [Example 113, (rac)-7,10-dimethyl-1-[3-(naphthalen-1-yloxy)propyl]-11-(propan-2-yl)-4,5,6,7,8,10-hexahydropyrazolo[3′,4′:7,8][1,5]diazecino[9,10,1-hi]indole-2-carboxylic Acid], for which the IC50 against BCL-XL is over 20 µM; in the data set on SUDHL10 [3], 6.99e-06 M; with A2780 it was 8.81e-06 M; with SUDHL5 [4] (setting [6]), 6.84e-06 M; with SUDHL10 [5] (setting [7]), 7.9e-06 M.

Consider `CCc1c2c(nn1C)CN(C)CCCn1c(C(=O)O)c(CCCOc3cccc4ccccc34)c3cccc-2c31` (racemic) [Example 141, (rac)-11-ethyl-7,10-dimethyl-1-[3-(1-naphthyloxy)propyl]-4,5,6,7,8,10-hexahydropyrazolo[3′,4′:7,8][1,5]diazecino[9,10,1-hi]indole-2-carboxylic Acid], for which the IC50 is over 20 µM at BCL-XL; 1.39e-06 M in the data set on SUDHL5 [2] (Homo sapiens, SU-DHL-5, 72 h); 1e-05 M in the data set with SUDHL10 [3]; 1.48e-05 M with A2780; 3.66e-06 M in the data set on SUDHL5 [4] (setting [6]); 7.87e-06 M in the data set on SUDHL10 [5] (setting [7]). The EC50 in the data set on SUDHL10 [1] (Homo sapiens, SU-DHL10, 3 h) was 7.3 µM.

In the case of `CCc1c2c(nn1C)CN(C)CCCn1c(C(=O)O)c(CCCOc3cccc4ccccc34)c3ccc(C)c-2c31` (racemic) [Example 144, (rac)-11-ethyl-7,10,12-trimethyl-1-[3-(1-naphthyloxy)propyl]-4,5,6,7,8,10-hexahydropyrazolo[3′,4′:7,8][1,5]diazecino[9,10,1-hi]indole-2-carboxylic Acid], the IC50 against BCL-XL was over 20 µM; with SUDHL5 [2] (Homo sapiens, SU-DHL-5, 72 h) it was 1.33e-06 M; with SUDHL10 [3], 5.89e-06 M; in the data set with A2780 it was 1.17e-05 M; in the data set with SUDHL5 [4] (setting [6]), 2.55e-06 M; in the data set with SUDHL10 [5] (setting [7]), 5.02e-06 M. In addition, the EC50 with SUDHL10 [1] (Homo sapiens, SU-DHL10, 3 h) is 3.91 µM.

As to `CCc1c2c(nn1C)COCCCCn1c(C(=O)O)c(CCCOc3cccc4ccccc34)c3ccc(C)c-2c31` (racemic) [Example 153, (rac)-3-Ethyl-2,4-dimethyl-7-[3-(1-naphthyloxy)propyl]-2,10,11,12,13,15-hexahydropyrazolo[4′,3′:9,10][1,6]oxazacycloundecino[8,7,6-hi]indole-8-carboxylic Acid], the IC50 against BCL-XL is over 20 µM; with SUDHL5 [2] (Homo sapiens, SU-DHL-5, 72 h), 7.96e-07 M; in the data set with SUDHL10 [3] it was 4.09e-06 M; in the data set on A2780, 1.52e-05 M; in the data set with SUDHL5 [4] (setting [6]), 1.65e-06 M; in the data set with SUDHL10 [5] (setting [7]), 5.1e-06 M. Besides, the EC50 in the data set with SUDHL10 [1] (Homo sapiens, SU-DHL10, 3 h) was determined as 5.12 µM.

For `Cc1nn(C)c2c1-c1cccc3c(CCCOc4cccc5cc(Cl)ccc45)c(C(=O)O)n(c13)CCCCOC2` (single isomer, unassigned; enantiomer 1) [Example 041, 7-{3-[(6-chloronaphthalen-1-yl)oxy]propyl}-1,3-dimethyl-1,10,11,12,13,15-hexahydropyrazolo[4′,3′:9,10][1,6]oxazacycloundecino[8,7,6-hi]indole-8-carboxylic acid-N-ethylethanamine Salt (Enantiomer 1)], the IC50 against BCL-XL was over 20 µM; in the data set with SUDHL5 [2] (Homo sapiens, SU-DHL-5, 72 h), 9.88e-06 M; in the data set with A2780 it was 1.81e-05 M; in the data set with SUDHL5 [4] (setting [8]) it was 1.02e-05 M; in the data set on SUDHL10 [5] (setting [9]), 1.46e-05 M. For the same molecule, the EC50 with SUDHL10 [1] (Homo sapiens, SU-DHL10, 3 h) came to 18.2 µM.

Take `COCc1nn(C)c2c1-c1cccc3c(CCCOc4cccc5ccccc45)c(C(=O)O)n(c13)CCCN(C)C2` (single isomer, unassigned; enantiomer 2) [Example 1-104, 11-(methoxymethyl)-7,9-dimethyl-1-[3-(1-naphthyloxy)propyl]-4,5,6,7,8,9-hexahydropyrazolo[3′,4′:7,8][1,5]diazecino[9,10,1-hi]indole-2-carboxylic Acid (Enantiomer 2)]: the IC50 on BCL-XL was over 20 µM; with SUDHL5 [2], 3.62e-06 M; with SUDHL5 [4] (setting [8]), 7.21e-06 M; in the data set with SUDHL10 [5] (setting [9]), 1.78e-05 M. In the data set on SUDHL10 [1], this molecule returned an EC50 of 8.64 µM.

Source of the values: patent publication US10981932B2, “Macrocyclic indole derivatives” (Bayer Aktiengesellschaft, priority 2016, dated 2021).
